Data: patent publication US20120028252A1, “HUMAN MENA ISOFORMS SERVE AS MARKERS OF EPITHELIAL TO MESENCHYMAL TRANSITION AND SENSITIVITY TO EGFR INHIBITION IN HUMAN CANCER CELLS” (priority 2008, published 2012)

Assays:
[1] = test system: hMena and hMena^+11a protein in BxPC3 cells; assay: Western blot of hMena expression after EGF and erlotinib treatment, BxPC3; type: cell-based, human
Experimental: (§1) Cell treatments. Cells were grown in six-well plates to confluence in RPMI supplemented with 10% fetal bovine serum. After 18 hours in serum-free medium, the cells were treated with different amounts of rhEGF (Promega) for 24 hours. Erlotinib (10 μmol/L) was added 2 hours before EGF treatment. Western blot analyses. Cells were lysed as reported (32). Lysates (30 or 100 μg) were resolved on 10% polyacrylamide gel and transferred to nitrocellulose membranes (GE Healthcare, Piscataway, N.J.). Membranes were blocked in 5% non-fat milk in Tris-buffered saline (TBS) containing 0.1% Tween 20 (TBS-T) for 1 hour at room temperature, incubated overnight with relevant antibodies, washed, and probed with species-specific secondary antibodies coupled to horseradish peroxidase, and detected by enhanced chemiluminescence (Amersham Biosciences).

[2] = test system: hMena and hMena^+11a protein in Panc1 cells; assay: Western blot of hMena expression after EGF and erlotinib treatment, Panc1; type: cell-based, human; conditions: EGF 50 and 100 ng/ml, 24 hours
Experimental: as §1

[3] = test system: hMena and hMena^+11a in breast cancer cell lines; conditions: cited from earlier work
[4] = test system: L3.6 μl human pancreatic cancer cell line; assay: Proliferation assay (cellular ATP, Vialight); type: cell-based; conditions: erlotinib 1 μmol/L, 24 hours, serum-free media
Experimental: (§5) The effects of increasing concentrations of erlotinib (0.1 to 10 μmol/L) on cell proliferation were assessed by measuring the intracellular ATP content using the Vialight assay. Results are expressed as percentage inhibition of ATP incorporation relative to untreated cells. […] Cell proliferation was determined by measurement of cellular ATP levels with a high sensitivity cell proliferation/cytotoxicity kit (Vialight Plus, Cambrex Bio Sci Rockland Inc., Rockland, Me.). Briefly, cells were plated in 96-well plates at a density of 1×10^4 per well and exposed 24 hours later to various concentrations of erlotinib (0.1-10 μmol/L) in serum-free media. After 24 hours nucleotide (ATP) releasing reagent (100 μl) was added to each well and the plate was incubated for 10 min at room temperature. Cell lysate (180 μl) was transferred to a luminescence compatible plate. The 96-well plates were read using a Perkin Elmer LS 50B luminometer. ATP levels in cells were normalized to levels in untreated control cultures.

[5] = test system: BxPC3 pancreatic cancer cell line; assay: Proliferation assay (cellular ATP, Vialight); type: cell-based; conditions: Homo sapiens, BXPC-3; erlotinib 1 μmol/L, 24 hours, serum-free media
Experimental: as §5

[6] = test system: T3M4 pancreatic cancer cell line; assay: Proliferation assay (cellular ATP, Vialight); type: cell-based; conditions: Homo sapiens, erlotinib 1 μmol/L, 24 hours, serum-free media
Experimental: as §5

[7] = test system: PACA44 pancreatic cancer cell line; assay: Proliferation assay (cellular ATP, Vialight); type: cell-based; conditions: Homo sapiens, PaCa-44; erlotinib 1 μmol/L, 24 hours, serum-free media
Experimental: as §5

[8] = test system: PT45 pancreatic cancer cell line; assay: Proliferation assay (cellular ATP, Vialight); type: cell-based, human; conditions: erlotinib 10 μmol/L
Experimental: as §5

[9] = test system: Panc1 pancreatic cancer cell line; assay: Proliferation assay (cellular ATP, Vialight); type: cell-based, human; conditions: erlotinib 10 μmol/L
Experimental: (§6) The effects of increasing concentrations of erlotinib (0.1 to 10 μmol/L) on cell proliferation were assessed by measuring the intracellular ATP content using the Vialight assay. Results are expressed as percentage inhibition of ATP incorporation relative to untreated cells. […] Proliferation assays. Cell proliferation was determined by measurement of cellular ATP levels with a high sensitivity cell proliferation/cytotoxicity kit (Vialight Plus, Cambrex Bio Sci Rockland Inc., Rockland, Me.). Briefly, cells were plated in 96-well plates at a density of 1×10^4 per well and exposed 24 hours later to various concentrations of erlotinib (0.1-10 μmol/L) in serum-free media. After 24 hours nucleotide (ATP) releasing reagent (100 μl) was added to each well and the plate was incubated for 10 min at room temperature. Cell lysate (180 μl) was transferred to a luminescence compatible plate. The 96-well plates were read using a Perkin Elmer LS 50B luminometer. ATP levels in cells were normalized to levels in untreated control cultures.

[10] = test system: MiaPaCa-2 pancreatic cancer cell line; assay: Proliferation assay (cellular ATP, Vialight); type: cell-based, human; conditions: erlotinib 10 μmol/L
Experimental: as §6

[11] = test system: Hs766T pancreatic cancer cell line; assay: Proliferation assay (cellular ATP, Vialight); type: cell-based, human; conditions: erlotinib 10 μmol/L
Experimental: as §6

[12] = test system: BxPC3 cells; assay: Proliferation assay after hMena siRNA knock-down, BxPC3; type: cell-based, human
Experimental: (§2) Silencing of hMena reduces the baseline growth rate in BxPC3 compared with the growth rate of untransfected cells and cells transfected with non specific siRNA (45% vs 100%, P<0.01). […] Proliferation assays were conducted 72 h after the siRNA transfection.
(§3) Proliferation assays. Cell proliferation was determined by measurement of cellular ATP levels with a high sensitivity cell proliferation/cytotoxicity kit (Vialight Plus, Cambrex Bio Sci Rockland Inc., Rockland, Me.). Briefly, cells were plated in 96-well plates at a density of 1×10^4 per well and exposed 24 hours later to various concentrations of erlotinib (0.1-10 μmol/L) in serum-free media. After 24 hours nucleotide (ATP) releasing reagent (100 μl) was added to each well and the plate was incubated for 10 min at room temperature. Cell lysate (180 μl) was transferred to a luminescence compatible plate. The 96-well plates were read using a Perkin Elmer LS 50B luminometer. ATP levels in cells were normalized to levels in untreated control cultures.
(§4) Small interfering RNA treatment. Cells in exponential growth phase were transfected with 100 nmol/L hMena-specific pooled small interfering RNA (siRNA) duplexes (siENA SMART pool) or control non-specific siRNA (Dharmacon, Lafayette, Colo.) using LipofectAMINE 2000 reagent (Invitrogen, Paisley, United Kingdom). […]

[13] = test system: Panc1 cells; assay: Proliferation assay after hMena siRNA knock-down, Panc1; type: cell-based, human; conditions: hMena siRNA construct (48 h) plus erlotinib (100 nM, 24 h)
Experimental: as §2, §3, §4

For “EGF: Recombinant human EGF purchased from Promega (NSDSECPLSHDGYCLHDGVCMYIEALDKYACNCVVGYIGERCQYRDLKWWELR; UniProt P01133 971-1023, looked up)”, the “hMena and hMena^+11a protein level” value ([1]; EGF 50 and 100 ng/ml, 24 hours, BxPC3) is given as “clearly increased”, the “hMena and hMena^+11a protein level” value [2] is given as “clearly increased” and the “hMena and hMena^+11a expression” value ([3]; EGF treatment of breast cancer cell lines) is given as “up-regulation”. For the same molecule, the “hMena^+11a expression and phosphorylation” value ([3]; HER2 activation by EGF and NRG1 treatment, breast cancer cell lines) was “up-regulation and phosphorylation”.

`C#Cc1cccc(Nc2ncnc3cc(OCCOC)c(OCCOC)cc23)c1` [erlotinib] showed an inhibition at 1 µM [4] of at least 50%, an inhibition at 1 µM [5] of at least 50% and an inhibition at 1 µM [6] of at least 50%. For the same molecule, the inhibition at 1 µM [7] was at least 50%, the growth rate [8] was “not significantly affected” and the growth rate [9] was “not significantly affected”. The growth rate [10] was “not significantly affected”, the growth rate [11] was “not significantly affected” and the hMena expression ([1]; erlotinib (10 μmol/L, 2 hours before EGF) added to EGF-treated BxPC3 cells) was “down regulated”. For the same molecule, the “proliferation, combined exposure” value ([12]; hMena siRNA construct (48 h) plus erlotinib (100 nM, 24 h), BxPC3) was “additive decrease”, the cell proliferation ([12]; hMena-silenced BxPC3 cells treated with erlotinib 0.1 μM/L for 24 h) was “dramatic decrease” and the “proliferation, combined exposure” value [13] was “did not”.

In the case of `COc1cc2ncnc(Nc3cccc(Cl)c3)c2cc1OC` [AG1478], the “EGF-promoted up-regulation of hMena and hMena^+11a and increase of phosphorylated hMena^+11a” value ([3]; pre-treatment of breast cancer cell lines before EGF) is given as “inhibited”.
